Experimental data: patent US8216975B2, “Method of labelling soya varieties” (priority 2004, dated 2012)

Columns and labels:
[1] = system: soya varieties S40R-9 and S24-K4; experiment: Field carry-over test: phytotoxicity to soya grown as subsequent crop to maize treated with HPPD herbicide; format: in vivo, Glycine max
Text: Biological Test Method for the Selection of Suitable Sensitive Reference Soybean Varieties in the Field:
• a) Compound No. 2.13 according to Table 2 below was applied pre- or post-emergence to maize in three repetitions in a field in the vicinity of Ames, Iowa, USA, under practical conditions at a suitable time (pre-emergence April-May; post-emergence May-June) in a field trial using concentrations of 100, 200 and 400 g a.i./ha. Application of fertilizer, pest control and other cultivation measures were carried out in accordance with the standards customary in agriculture. Because not all weeds were controlled by the test herbicides, the test plots were kept weed-free over the entire vegetation period by the application of non-soil-active herbicides. • b) The plots were harvested and labeled in the autumn. At the customary time in […] (April/May) of the following year, the soybeans to be tested were sown in the labeled plots from the previous year and the condition of the plants on reaching the different physiological growth stages was evaluated (see Table 1). • c) The evaluation was carried out in % general phytotoxicity, which records any effects such as growth inhibition, bleaching, chlorosis, scorching or thinning. 0-4% phytotoxicity is acceptable, >4% is not acceptable under practical field conditions.
Tables A and B: Phytotoxicity of the soya varieties S40R-9 and S24-K4 as a subsequent crop to maize in which weed control has been carried out using the herbicide of formula 2.13. The herbicide was applied in an amount of 400 g/ha; in Table B an oil adjuvant (Agridex) was additionally used in an amount of 1.25% by volume.

soybean varieties = experiment: Greenhouse pot test: soybean varieties sown in soil treated with HPPD inhibitor, ED20 and factor versus reference variety; format: in vivo, Glycine max
Procedure: Test Method for the Selection of Suitable Soybean Varieties: Categorisation of the Soybean Varieties According to Their Sensitivity to HPPD Herbicide Residues and Comparison with Sensitive and Non-Sensitive Soybean Varieties:
• 1. A non-sterilised soil is treated with the HPPD inhibitor being tested. The HPPD inhibitor being tested is applied in concentrations of 0, 20, 40 and 80 ppb and incorporated homogeneously into the soil. The soil so treated is then introduced into pots (2⅝ inch×2⅝ inch×3½ inch) and lightly firmed. • 2. Sowing: The soybean varieties being tested are sown in the pots treated as described above as follows: 3 seed grains are used per pot, the seeds being pressed lightly into the soil (under the surface of the soil) and covered over with soil. In each test, varieties having known sensitivity are also tested as reference. These are the soybean varieties NK S40-R9 and Pioneer P94B01. Shortly after germination, the plants are thinned out to two plants per pot. The plants receive an optimum supply of water and nutrients and are kept in a greenhouse at 20-24° C., with 16 hours exposure to light per day. • 3. 3-4 Weeks after sowing, the condition of the plants is evaluated visually. Symptoms of damage to the plants, such as chlorosis, bleaching and growth inhibition (‘stunting’), are assessed and compared with an untreated soya plant of the same variety. • 4. Calculation: The repetitions are combined and a linear regression analysis is carried out with non-transformed data. ED20 values (=effective dose at which damage is 20% in comparison with the untreated control) are calculated from the regression curve for each variety. The soybeans are grouped according to whether they are “sensitive” or “tolerant” by comparing the ED20 values of the test varieties with those of the standard varieties, that is to say by determining a factor with respect to the reference variety.

COCCOCc1nc(C(F)(F)F)ccc1C(=O)C1=C(O)C2CCC(C2)C1=O (stereo not drawn) [Compound No. 2.13]
% Phytotoxicity (mean value) ([1]; Table A, soya variety NK S40-R9, 400 g/ha on maize, 29 days after sowing, 404 days after herbicide application, BBCH12/BBCH13): 6.67% | % Phytotoxicity (mean value) ([1]; Table A, soya variety NK S40-R9, 400 g/ha on maize, 42 days after sowing, 417 days after herbicide application, BBCH14/BBCH14): 13% | % Phytotoxicity (mean value) ([1]; Table A, soya variety NK S40-R9, 400 g/ha on maize, 56 days after sowing, 431 days after herbicide application, BBCH16/BBCH17): 14.33% | % Phytotoxicity (mean value) ([1]; Table A, soya variety NK-S24-K4, 400 g/ha on maize, 29 days after sowing, 404 days after herbicide application, BBCH12/BBCH13): 0% | % Phytotoxicity (mean value) ([1]; Table A, soya variety NK-S24-K4, 400 g/ha on maize, 42 days after sowing, 417 days after herbicide application, BBCH14/BBCH14): 0% | % Phytotoxicity (mean value) ([1]; Table A, soya variety NK-S24-K4, 400 g/ha on maize, 56 days after sowing, 431 days after herbicide application, BBCH16/BBCH17): 0% | % Phytotoxicity (mean value) ([1]; Table B, soya variety NK S40-R9, 400 g/ha on maize plus oil adjuvant (Agridex) 1.25% by volume, 29 days after sowing, 404 days after herbicide application, BBCH12/BBCH13): 36.67% | % Phytotoxicity (mean value) ([1]; Table B, soya variety NK S40-R9, 400 g/ha on maize plus oil adjuvant (Agridex) 1.25% by volume, 42 days after sowing, 417 days after herbicide application, BBCH14/BBCH14): 49.33% | % Phytotoxicity (mean value) ([1]; Table B, soya variety NK S40-R9, 400 g/ha on maize plus oil adjuvant (Agridex) 1.25% by volume, 56 days after sowing, 431 days after herbicide application, BBCH16/BBCH17): 56.67% | % Phytotoxicity (mean value) ([1]; Table B, soya variety NK-S24-K4, 400 g/ha on maize plus oil adjuvant (Agridex) 1.25% by volume, 29 days after sowing, 404 days after herbicide application, BBCH12/BBCH13): 5.67% | % Phytotoxicity (mean value) ([1]; Table B, soya variety NK-S24-K4, 400 g/ha on maize plus oil adjuvant (Agridex) 1.25% by volume, 42 days after sowing, 417 days after herbicide application, BBCH14/BBCH14): 3.33% | % Phytotoxicity (mean value) ([1]; Table B, soya variety NK-S24-K4, 400 g/ha on maize plus oil adjuvant (Agridex) 1.25% by volume, 56 days after sowing, 431 days after herbicide application, BBCH16/BBCH17): 1.67% | Factor with respect to reference variety NK S40-R9, based on ED20 values (soybean varieties; soya variety AGI 7370 RR): 1.0 | Factor with respect to reference variety NK S40-R9, based on ED20 values (soybean varieties; soya variety Agripro 2502 RR): 5.3 | Factor with respect to reference variety NK S40-R9, based on ED20 values (soybean varieties; soya variety Agripro 2547 RR/N): 4.7 | Factor with respect to reference variety NK S40-R9, based on ED20 values (soybean varieties; soya variety Agway APK 190): 12.2 | Factor with respect to reference variety NK S40-R9, based on ED20 values (soybean varieties; soya variety Agway APK256 RR): 5.6 | Factor with respect to reference variety NK S40-R9, based on ED20 values (soybean varieties; soya variety Asgrow 1602): 5.4 | Factor with respect to reference variety NK S40-R9, based on ED20 values (soybean varieties; soya variety Asgrow 2105): 6.5 | Factor with respect to reference variety NK S40-R9, based on ED20 values (soybean varieties; soya variety Asgrow 2705): 5.0 | Factor with respect to reference variety NK S40-R9, based on ED20 values (soybean varieties; soya variety Asgrow AG1401 RR): 4.5 | Factor with respect to reference variety NK S40-R9, based on ED20 values (soybean varieties; soya variety Asgrow AG2302): 4.7 | Factor with respect to reference variety NK S40-R9, based on ED20 values (soybean varieties; soya variety Asgrow AG3902): 4.7 | Factor with respect to reference variety NK S40-R9, based on ED20 values (soybean varieties; soya variety Asgrow AG4403): 8.5 | Factor with respect to reference variety NK S40-R9, based on ED20 values (soybean varieties; soya variety Beck's 336NRR): 4.5 | Factor with respect to reference variety NK S40-R9, based on ED20 values (soybean varieties; soya variety Beck's 366NRR): 4.9 | Factor with respect to reference variety NK S40-R9, based on ED20 values (soybean varieties; soya variety D King 4868RR): 4.4 | Factor with respect to reference variety NK S40-R9, based on ED20 values (soybean varieties; soya variety Dekalb DK32-51): 5.3 | Factor with respect to reference variety NK S40-R9, based on ED20 values (soybean varieties; soya variety Dekalb DKB23-51): 5.8 | Factor with respect to reference variety NK S40-R9, based on ED20 values (soybean varieties; soya variety Dekalb DKB36-51): 4.2 | Factor with respect to reference variety NK S40-R9, based on ED20 values (soybean varieties; soya variety Garst 2677 RR): 4.1 | Factor with respect to reference variety NK S40-R9, based on ED20 values (soybean varieties; soya variety Gld H H3505RR): 5.8 | Factor with respect to reference variety NK S40-R9, based on ED20 values (soybean varieties; soya variety Kruger 279 RR): 3.4 | Factor with respect to reference variety NK S40-R9, based on ED20 values (soybean varieties; soya variety Kruger 323 RR): 4.3 | Factor with respect to reference variety NK S40-R9, based on ED20 values (soybean varieties; soya variety MFA RT 3660N): 4.3 | Factor with respect to reference variety NK S40-R9, based on ED20 values (soybean varieties; soya variety Mustang M-222RR): 0.8 | Factor with respect to reference variety NK S40-R9, based on ED20 values (soybean varieties; soya variety NK S24-K4): 3.6 | Factor with respect to reference variety NK S40-R9, based on ED20 values (soybean varieties; soya variety NK S35-A6): 5.3 | Factor with respect to reference variety NK S40-R9, based on ED20 values (soybean varieties; soya variety NK S40-R9 (reference variety)): 1.0 | Factor with respect to reference variety NK S40-R9, based on ED20 values (soybean varieties; soya variety NK S46-W8): 0.5 | Factor with respect to reference variety NK S40-R9, based on ED20 values (soybean varieties; soya variety Pioneer 90B51): 1.1 | Factor with respect to reference variety NK S40-R9, based on ED20 values (soybean varieties; soya variety Pioneer 91B33): 4.9 | Factor with respect to reference variety NK S40-R9, based on ED20 values (soybean varieties; soya variety Pioneer 91B91): 3.0 | Factor with respect to reference variety NK S40-R9, based on ED20 values (soybean varieties; soya variety Pioneer 93B67): 1.1 | Factor with respect to reference variety NK S40-R9, based on ED20 values (soybean varieties; soya variety Pioneer 94B01): 0.8 | Factor with respect to reference variety NK S40-R9, based on ED20 values (soybean varieties; soya variety Pioneer 94B54): 1.6 | Factor with respect to reference variety NK S40-R9, based on ED20 values (soybean varieties; soya variety Pioneer 9492): 1.0 | Factor with respect to reference variety NK S40-R9, based on ED20 values (soybean varieties; soya variety Pioneer P92B38): 4.3 | Factor with respect to reference variety NK S40-R9, based on ED20 values (soybean varieties; soya variety S21-H7 STS): 5.03 | Factor with respect to reference variety NK S40-R9, based on ED20 values (soybean varieties; soya variety S34-A9 STS): 8.0 | Factor with respect to reference variety NK S40-R9, based on ED20 values (soybean varieties; soya variety S. Grow SG948RR): 1.2

CS(=O)(=O)c1ccc(C(=O)C2C(=O)CCCC2=O)c([N+](=O)[O-])c1 [2.04, reference compound]
Factor with respect to reference variety NK S40-R9, based on ED20 values (soybean varieties; Table D, soya variety S21-H7 STS): 3.45 | Factor with respect to reference variety NK S40-R9, based on ED20 values (soybean varieties; Table D, soya variety S34-A9 STS): 4.56 | Factor with respect to reference variety NK S40-R9, based on ED20 values (soybean varieties; Table D, soya variety S40-R9 (reference variety)): 1.0
